Bridge positions count the residues as written; N and C are the ends. Square brackets hold non-standard residues; d marks the D form. Peptide text beside a SMILES is read from it. * marks the point of attachment. Tyr(3,5-F2) = N[C@@H](Cc1cc(F)c(O)c(F)c1)C(=O)O; Phe(4-CONH2) = NC(=O)c1ccc(C[C@H](N)C(=O)O)cc1; Bip = N[C@@H](Cc1ccc(-c2ccccc2)cc1)C(=O)O; Phe(3-CN) = N#Cc1cccc(C[C@H](N)C(=O)O)c1; Ala(2-furyl) = N[C@@H](Cc1ccco1)C(=O)O; Phe(3-Me) = Cc1cccc(C[C@H](N)C(=O)O)c1; His(π-Me) = Cn1cncc1C[C@H](N)C(=O)O; Val(3-OH) = CC(C)(O)[C@H](N)C(=O)O; 4Pal = N[C@@H](Cc1ccncc1)C(=O)O; Cha = N[C@@H](CC1CCCCC1)C(=O)O; Cit = NC(=O)NCCC[C@H](N)C(=O)O; dNMeN = CN[C@H](CC(N)=O)C(=O)O; Carboxymethyl = O=C(O)C*; Orn = NCCC[C@H](N)C(=O)O; Aun = NCCCCCCCCCCC(=O)O; Dab = NCC[C@H](N)C(=O)O; Dap = NC[C@H](N)C(=O)O; AEEA = NCCOCCOCC(=O)O
target: T1, PD-1/PD-L1 interaction (PE-labeled human PD-L1-Ig binding to Jurkat cell line over-expressing human PD-1) (Homo sapiens, UniProt Q15116); experiment: Jurkat-PD-1 Cell Binding High-Content Screening Assay (CBA); type: cell-based; conditions: Jurkat cell line over-expressing human PD-1; PE-labeled PD-L1-Ig 20 nM final; read-out: Jurkat hPD1-PDL1 IC50
T1 construct: expressed in transfected cells; host or cells: Jurkat
T1 sequence (Q15116 25-288): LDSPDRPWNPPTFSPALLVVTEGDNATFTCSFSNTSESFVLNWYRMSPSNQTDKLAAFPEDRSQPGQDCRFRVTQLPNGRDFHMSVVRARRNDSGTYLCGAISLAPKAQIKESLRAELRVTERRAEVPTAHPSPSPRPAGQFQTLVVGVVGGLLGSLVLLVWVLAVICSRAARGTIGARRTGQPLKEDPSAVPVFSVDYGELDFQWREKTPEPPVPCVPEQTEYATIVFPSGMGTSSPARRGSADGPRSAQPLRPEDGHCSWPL
In short: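 Jurkat cells over-expressing human PD-1 (8×10^3 per well, DMEM/10% FCS) preincubated with compound 2 h at 37° C, then PE-labeled human PD-L1-Ig (20 nM final) added for 1 h. Cells fixed with paraformaldehyde, Hoechst-stained, and bound fluorescence quantified by high-content imaging.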

| Structure (SMILES) | IC50 [nM] |
| --- | --- |
| Cc1cccc(C[C@@H]2NC(=O)[C@H](CC(=O)O)NC(=O)[C@H](Cc3ccc(OCC(=O)O)cc3)NC(=O)[C@H](CCN)NC(=O)CSC[C@@H](C(=O)N[C@@H](CCN)C(=O)NCCCCCCCCCCC(=O)O)NC(=O)[C@H](CO)NC(=O)[C@H](C(C)(C)O)NC(=O)[C@H](CC3CCCCC3)NC(=O)[C@H](CCN)NC(=O)[C@@H](CC(C)C)NC(=O)[C@H](CCCN)NC(=O)[C@H](Cc3ccc(O)cc3)NC(=O)[C@H](Cc3ccc(-c4ccccc4)cc3)NC(=O)[C@H](Cc3ccc(C(N)=O)cc3)NC2=O)c1 [Compound 3603] ({CH2CO}-[Dab]Y(Carboxymethyl)D[Phe(3-Me)][Phe(4-CONH2)][Bip]Y[Orn][dL][Dab][Cha][Val(3-OH)]SC[Dab][Aun]-OH; thioether N-14) | 9.2 |
| CC(C)C[C@H]1NC(=O)[C@H](CCCN)NC(=O)[C@H](Cc2ccc(O)cc2)NC(=O)[C@H](Cc2ccc(-c3ccccc3)cc2)NC(=O)[C@H](C(C)C)NC(=O)[C@H](Cc2cccc(C#N)c2)NC(=O)[C@H](CC(=O)O)NC(=O)[C@H](Cc2ccc(OCC(=O)O)cc2)NC(=O)[C@H](CN)NC(=O)CSC[C@@H](C(=O)N[C@@H](CCN)C(=O)NCCOCCOCC(=O)NCCCCCCCCCCC(=O)O)NC(=O)[C@H](CCCN)NC(=O)[C@H](C(C)C)NC(=O)[C@H](CC2CCCCC2)NC(=O)[C@H](CCN)NC1=O [Compound 1291] ({CH2CO}-[Dap]Y(Carboxymethyl)D[Phe(3-CN)]V[Bip]Y[Orn][dL][Dab][Cha]V[Orn]C[Dab][AEEA][Aun]-OH; thioether N-14) | 14.7 |
| CC(C)C[C@H]1NC(=O)[C@H](CCCN)NC(=O)[C@H](Cc2ccc(O)cc2)NC(=O)[C@H](Cc2ccc(-c3ccccc3)cc2)NC(=O)[C@H](Cc2ccc(O)cc2)NC(=O)[C@H](Cc2c[nH]c3ccccc23)NC(=O)[C@H](CC(=O)O)NC(=O)[C@H](Cc2ccc(OCC(=O)O)cc2)NC(=O)[C@H](CN)NC(=O)CSC[C@@H](C(=O)N[C@@H](CCN)C(=O)NCCCCCCCCCCC(=O)O)NC(=O)[C@H](CCCCN)NC(=O)[C@H](Cc2ccc(O)cc2)NC(=O)[C@H](CC2CCCCC2)NC(=O)[C@H](CCN)NC1=O [Compound 2509] ({CH2CO}-[Dap]Y(Carboxymethyl)DWY[Bip]Y[Orn][dL][Dab][Cha]YKC[Dab][Aun]-OH; thioether N-14) | 59.8 |
| Cc1cccc(C[C@@H]2NC(=O)[C@H](CC(=O)O)NC(=O)[C@H](Cc3ccc(OCC(=O)O)cc3)NC(=O)[C@H](Cc3ccco3)NC(=O)CSC[C@@H](C(=O)N(C)[C@H](CC(N)=O)C(=O)NCCCCCCCCCCC(=O)O)NC(=O)[C@H](CCCN)NC(=O)[C@H](C(C)C)NC(=O)[C@H](CC3CCCCC3)NC(=O)[C@H](CCN)NC(=O)[C@@H](CC(C)C)NC(=O)[C@H](CCN)NC(=O)[C@H](C(C)C)NC(=O)[C@H](Cc3ccc(-c4ccccc4)cc3)NC(=O)[C@H](C(C)C)NC2=O)c1 [Compound 3352] ({CH2CO}-[Ala(2-furyl)]Y(Carboxymethyl)D[Phe(3-Me)]V[Bip]V[Dab][dL][Dab][Cha]V[Orn]C[dNMeN][Aun]-OH; thioether N-14) | 26.5 |

The remaining compounds from weak to strong by IC50, led by results:

| IC50 [nM] | Structure (SMILES) |
| --- | --- |
| 35.7 | CC(C)C[C@H]1NC(=O)[C@H](CCCN)NC(=O)[C@H](C(C)C)NC(=O)[C@H](Cc2ccc(-c3ccccc3)cc2)NC(=O)[C@H](C(C)C)NC(=O)[C@H](Cc2c[nH]c3ccccc23)NC(=O)[C@H](CC(=O)O)NC(=O)[C@H](Cc2ccc(OCC(=O)O)cc2)NC(=O)[C@H](CN)NC(=O)CSC[C@@H](C(=O)N[C@@H](C)C(=O)N[C@@H](CCC(=O)O)C(=O)NCCCCCCCCCCC(=O)O)NC(=O)[C@H]([C@@H](C)O)NC(=O)[C@H](C(C)C)NC(=O)[C@H](CC2CCCCC2)NC(=O)[C@H](Cc2cnc[nH]2)NC1=O [Compound 1080] ({CH2CO}-[Dap]Y(Carboxymethyl)DWV[Bip]V[Orn][dL]H[Cha]VTCAE[Aun]-OH; thioether N-14) |
| 19.1 | Cc1cccc(C[C@@H]2NC(=O)[C@H](CC(=O)O)NC(=O)[C@H](Cc3ccc(OCC(=O)O)cc3)NC(=O)[C@H]([C@@H](C)O)NC(=O)CSC[C@@H](C(=O)N[C@@H](CCCCN)C(=O)NCCCCCCCCCCC(=O)O)NC(=O)[C@H]([C@@H](C)O)NC(=O)[C@H](C(C)C)NC(=O)[C@H](CC3CCCCC3)NC(=O)[C@H](CCN)NC(=O)[C@@H](CC(C)C)NC(=O)[C@H](CCCN)NC(=O)[C@H](Cc3ccc(OCC(=O)O)cc3)NC(=O)[C@H](Cc3ccc(-c4ccccc4)cc3)NC(=O)[C@H](Cc3ccc(OCC(=O)O)cc3)NC2=O)c1 [Compound 1293] ({CH2CO}-TY(Carboxymethyl)D[Phe(3-Me)]Y(Carboxymethyl)[Bip]Y(Carboxymethyl)[Orn][dL][Dab][Cha]VTCK[Aun]-OH; thioether N-14) |
| 15.5 | Cc1cccc(C[C@@H]2NC(=O)[C@H](CC(=O)O)NC(=O)[C@H](Cc3ccc(OCC(=O)O)cc3)NC(=O)[C@H](Cc3cncn3C)NC(=O)CSC[C@@H](C(=O)N[C@@H](CCN)C(=O)NCCCCCCCCCCC(=O)O)NC(=O)[C@H]([C@@H](C)O)NC(=O)[C@H](C(C)C)NC(=O)[C@H](CC3CCCCC3)NC(=O)[C@H](CCN)NC(=O)[C@@H](CC(C)C)NC(=O)[C@H](CCCN)NC(=O)[C@H](CCCNC(N)=O)NC(=O)[C@H](Cc3ccc(-c4ccccc4)cc3)NC(=O)[C@H](C(C)C)NC2=O)c1 [Compound 2034] ({CH2CO}-[His(π-Me)]Y(Carboxymethyl)D[Phe(3-Me)]V[Bip][Cit][Orn][dL][Dab][Cha]VTC[Dab][Aun]-OH; thioether N-14) |
| 9.6 | Cc1cccc(C[C@@H]2NC(=O)[C@H](CC(=O)O)NC(=O)[C@H](Cc3ccc(OCC(=O)O)cc3)NC(=O)[C@H](Cc3ccncc3)NC(=O)CSC[C@@H](C(=O)N[C@@H](CCN)C(=O)NCCCCCCCCCCC(=O)O)NC(=O)[C@H](CO)NC(=O)[C@H](C(C)(C)O)NC(=O)[C@H](CC3CCCCC3)NC(=O)[C@H](CCN)NC(=O)[C@@H](CC(C)C)NC(=O)[C@H](CCCN)NC(=O)[C@H](Cc3ccc(OCC(=O)O)cc3)NC(=O)[C@H](Cc3ccc(-c4ccccc4)cc3)NC(=O)[C@H](Cc3cc(F)c(O)c(F)c3)NC2=O)c1 [Compound 2185] ({CH2CO}-[4Pal]Y(Carboxymethyl)D[Phe(3-Me)][Tyr(3,5-F2)][Bip]Y(Carboxymethyl)[Orn][dL][Dab][Cha][Val(3-OH)]SC[Dab][Aun]-OH; thioether N-14) |
| 7.7 | Cc1cccc(C[C@@H]2NC(=O)[C@H](CC(=O)O)NC(=O)[C@H](Cc3ccc(OCC(=O)O)cc3)NC(=O)[C@H](Cc3ccncc3)NC(=O)CSC[C@@H](C(=O)N[C@@H](CCN)C(=O)NCCCCCCCCCCC(=O)O)NC(=O)[C@H](CO)NC(=O)[C@H](C(C)(C)O)NC(=O)[C@H](CC3CCCCC3)NC(=O)[C@H](CCN)NC(=O)[C@@H](CC(C)C)NC(=O)[C@H](CCCN)NC(=O)[C@H](Cc3ccc(OCC(=O)O)cc3)NC(=O)[C@H](Cc3ccc(-c4ccccc4)cc3)NC(=O)[C@H](Cc3ccc(C(N)=O)cc3)NC2=O)c1 [Compound 2192] ({CH2CO}-[4Pal]Y(Carboxymethyl)D[Phe(3-Me)][Phe(4-CONH2)][Bip]Y(Carboxymethyl)[Orn][dL][Dab][Cha][Val(3-OH)]SC[Dab][Aun]-OH; thioether N-14) |

From patent US20260022142A1, “MACROCYCLIC IMMUNOMODULATORS” (Bristol-Myers Squibb Company, priority 2022, published 2026)
